Measured values published in patent US8820316B2, “Drug delivery apparatus” (Respironics Respiratory Drug Delivery (UK) Ltd, priority 2000, dated 2014).

How the values were obtained:
[1] = Budesonide study in 125 children with asthma using the system of the invention, asthma symptom score; type: in vivo; details: Improved Invention System, 200/50 μg; for daytime asthma symptom score, Baseline at entry / daytime asthma symptom score, End of Study: visual analogue range 0-3
Description: A study in 125 children with asthma using the system disclosed in this patent delivered three different regimes of a short duration (2-12 weeks) high delivered daily dose 200 μg followed by a long duration (12-22 weeks) low daily dose delivered dose 50 μg. Their treatment compliance was monitored electronically and their asthma symptoms by the parents using a visual analogue score. The treatment compliance over the study was 80/90% and the asthma scores reduced from a baseline of 1.23/1.27 to 0.23/0.43.

[2] = Budesonide study in 481 children with asthma using conventional nebulizers, asthma symptom score; type: in vivo; details: Conventional Nebuliser; for daytime asthma symptom score, End of Study: 12 weeks; for daytime asthma symptom score, End of Study / daytime asthma symptom score, Baseline at entry: visual analogue range 0-3
Description: The study in 481 children with asthma using conventional nebulizers delivered five different regimes. Nominal nebulizer doses were in the range 250/1000 μg daily and placebo over a 12 week period. Their asthma symptoms by the parents using a visual analogue scores, the asthma scores reduced from 1.21/1.33 to 0.87/0.93.

[3] = Sputum tobramycin concentration, conventional nebulizer versus high compliance system; type: in vivo, patients; details: human, inhaled
Description: To compare the performance of a conventional nebulizer and a high compliance system according to this invention using Tobramycin 8 patients received either 300 mg/5 ml via conventional nebulizer or 30 mg delivered dose via the high compliance system. The mean sputum tobramycin concentrations at 2 hours were 128 μg/g for the conventional nebulizer and 98 μg/g for the high compliance system. This study may indicate that an even lower dose may be acceptable to achieve the MIC level when delivered with a high compliance system such as disclosed in this invention, in the range 5-30 mg Tobramycin.

[4] = system: Pseudomonas aeriginosa; details: typically required, for 90% of organisms; to be maintained for 120 minutes; cited from earlier work
[5] = system: susceptible bacteria in the endobronchial space; details: 200-400 mg aminoglycoside in about 5 ml, 0.225% NaCl, pH 5.5-6.5, aerosolised (WO 96/12471); cited from earlier work
[6] = rhDNase response (FEV1) in adult CF patients who previously failed to respond; type: in vivo
Description: Mean change in FEV1 was 11.51%.

[7] = when starting rhDNase therapy; cited from earlier work

## CCCC1O[C@@H]2C[C@H]3[C@@H]4CCC5=CC(=O)C=C[C@]5(C)[C@H]4[C@@H](O)C[C@]3(C)[C@]2(C(=O)CO)O1 (stereo partly shown) [Budesonide]
[1]; 2/22 weeks
  daytime asthma symptom score, Change: −1
  daytime asthma symptom score, Baseline at entry: 1.23
  daytime asthma symptom score, End of Study: 0.23
[1]; 6/18 weeks
  daytime asthma symptom score, Change: −0.83
  daytime asthma symptom score, Baseline at entry: 1.26
  daytime asthma symptom score, End of Study: 0.43
[1]; 12/12 weeks
  daytime asthma symptom score, Change: −0.91
  daytime asthma symptom score, Baseline at entry: 1.27
  daytime asthma symptom score, End of Study: 0.36
[2]; 250 μg once daily
  daytime asthma symptom score, Change: −0.28
  daytime asthma symptom score, End of Study: 0.93
  daytime asthma symptom score, Baseline at entry: 1.21
[2]; 250 μg twice daily
  daytime asthma symptom score, Change: −0.4
  daytime asthma symptom score, End of Study: 0.91
  daytime asthma symptom score, Baseline at entry: 1.31
[2]; 500 μg twice daily
  daytime asthma symptom score, Change: −0.46
  daytime asthma symptom score, End of Study: 0.87
  daytime asthma symptom score, Baseline at entry: 1.33
[2]; 1000 μg once daily
  daytime asthma symptom score, Change: −0.37
  daytime asthma symptom score, End of Study: 0.91
  daytime asthma symptom score, Baseline at entry: 1.28

## NC[C@H]1O[C@H](O[C@H]2[C@H](O)[C@@H](O[C@H]3O[C@H](CO)[C@@H](O)[C@H](N)[C@H]3O)[C@H](N)C[C@@H]2N)[C@H](N)C[C@@H]1O [Tobramycin]
[3]; 30 mg delivered dose via the high compliance system
  concentration at 2 h: 98000 ng/g
[3]; 300 mg/5 ml via conventional nebulizer
  concentration at 2 h: 128000 ng/g
[4]
  MIC level: > 16 µg/mL
[5]
  suppresses and inhibits susceptible bacteria: at least 95%

B1: rhDNase: Pulmozyme (recombinant, human DNase), mucoactive drug for cystic fibrosis lung disease (protein, UniProt P24855 23-282, looked up)
Deoxyribonuclease-1: LKIAAFNIQTFGETKMSNATLVSYIVQILSRYDIALVQEVRDSHLTAVGKLLDNLNQDAPDTYHYVVSEPLGRNSYKERYLFVYRPDQVSAVDSYYYDDGCEPCGNDTFNREPAIVRFFSRFTEVREFAIVPLHAAPGDAVAEIDALYDVYLDVQEKWGLEDVMLMGDFNAGCSYVRPSQWSSIRLWTSPTFQWLIPDSADTTATPTHCAYDRIVVAGMLLRGAVVPDSALPFNFQAAYGLSDQLAQAISDHYPVEVMLK
modifications: dornase alfa
[6]; 10 days, 0.25 ml/0.25 mg of the formulation, high compliance delivery system
  Mean change in FEV1: 11.51%
[6]; previous rhDNase therapy with conventional nebulizer devices
  mean response to therapy, change in FEV1: 4.17%
[7]
  patients showing a greater than 10% change in FEV1 over baseline: Approximately 38%
